# Measured values from patent US20240317777A1, “NOVEL MACROCYCLIC AMINOPYRAZOLE COMPOUNDS AS CDK2 INHIBITORS” (Accutar Biotechnology Inc., priority 2023, published 2024).
# Like-named read-outs stand apart in the source and are kept apart here.
# Columns and labels:
# [1] = molecular target: CDK1-CYCLIN B (Homo sapiens, UniProt P06493); experiment: CDK protein kinase inhibition by ADP-Glo assay, CDK1-CYCLIN B; format: biochemical; settings: for IC50: read-out: CDK1-CYCLINB, IC50; for CDK2 Fold selectivity against CDK1: fold selectivity for CDK2 over CDK1, recombinant CDK kinases
# Method: (§1) CDK Protein Kinase Inhibition by ADP-Glo Assay
# (§2) This ADP-Glo assay measures ADP formed from a kinase reaction and indirectly quantifies the phosphorylation of peptide substrates by the CDK/cyclin protein complexes. The typical assays were carried out in Nanosyn by combining kinase/cyclin complexes, substrates, compounds, and cofactors (ATP and Mg2+) in a well of a 384-well microtiter plate (Corning 3824) and incubating at 22° C. (Table 1). At the end of the incubation, the reaction is quenched, and conversion is detected by luminescence using the Promega ADP-Glo™ Kinase Assay kit (catalog #V9102).
# (§3) Final assay buffer mixture contains: • 100 mM HEPES, pH 7.5 • 0.1% BSA • 0.01% Triton X-100 • 1 mM DTT • 5 mM MgCl2 • 10 μM Sodium Orthovanadate • 100 μM Beta-Glycerophosphate • 1000 μM Ultra Pure ATP (provided in the Promega ADP-Glo™ Kinase Assay kit) • 1% DMSO (from compound)
# (§4) Upon completion, 5 μL of the ADP Glo reagent was added to each well and the plate was further incubated at room temperature for 45 minutes. 10 uL of the Kinase Detection Reagent was subsequently added to each well. After 10 minutes of incubation, the plate was read and analyzed on the BioTek Synergy microplate reader using BioTek Gen5 software.
# [2] = molecular target: CDK2-CYCLIN E1 (Homo sapiens, UniProt P24941); experiment: CDK protein kinase inhibition by ADP-Glo assay, CDK2-CYCLIN E1; format: biochemical; settings: read-out: CDK2-CYCLINE, IC50
# Method: as §1, §2, §3, §4
# [3] = molecular target: CDK4-CYCLIN D1 (Homo sapiens, UniProt P11802); experiment: CDK protein kinase inhibition by ADP-Glo assay, CDK4-CYCLIN D1; format: biochemical; settings: for IC50: read-out: CDK4-CYCLIND1, IC50; for CDK2 Fold selectivity against CDK4: fold selectivity for CDK2 over CDK4, recombinant CDK kinases
# Method: as §1, §2, §3, §4
# [4] = molecular target: CDK6-CYCLIN D3 (Homo sapiens, UniProt Q00534); experiment: CDK protein kinase inhibition by ADP-Glo assay, CDK6-CYCLIN D3; format: biochemical; settings: for IC50: read-out: CDK6-CYCLIND3, IC50; for CDK2 Fold selectivity against CDK6: fold selectivity for CDK2 over CDK6, recombinant CDK kinases
# Method: as §1, §2, §3, §4
# [5] = molecular target: CDK9-CYCLIN T1 (Homo sapiens, UniProt P50750); experiment: CDK protein kinase inhibition by ADP-Glo assay, CDK9-CYCLIN T1; format: biochemical; settings: for CDK2 Fold selectivity against CDK9: fold selectivity for CDK2 over CDK9, recombinant CDK kinases
# Method: as §1, §2, §3, §4
# [6] = system: Phospho-Rb (Ser807/811) in OVCAR3 cells; experiment: Phospho-Rb expression inhibition in OVCAR3 cells quantified by In Cell Western; format: cell-based; settings: Homo sapiens, OVCAR-3, 24 hours, read-out: OVCAR-3 pRb IC50
# How it was run: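 In-cell western: after 24 h compound exposure at 37° C, fixed OVCAR3 cells co-stained for pRb Ser807/811 (800 nm channel) and total Rb (680 nm channel), imaged by LI-COR Odyssey.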
# [7] = system: CCNE1-amplified OVCAR3 cells; experiment: Cell growth inhibition of CCNE1-amplified OVCAR3 cells (CellTiter-Glo); format: cell-based; settings: Homo sapiens, OVCAR-3, 144 h, 6 days
# How it was run: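 Growth read-out was CellTiter-Glo luminescence, taken after 10 min at room temperature at the end of a 6-day compound exposure at 37 °C. Compounds were diluted from DMSO stocks across various concentrations.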
# [8] = system: CCNE1-normal SKOV3 cells; experiment: Cell growth inhibition of CCNE1-normal SKOV3 cells (CellTiter-Glo); format: cell-based; settings: Homo sapiens, SK-OV-3, 144 h, 6 days
# Method: Cell Growth Inhibition of CCNE1-Normal SKOV3 Cells
# SKOV3 cells were obtained from American Type Culture Collection (ATCC, HTB-77). SKOV3 cells were seeded in 96-well plates at 1000 cells/well in 90 μl of RPM11640 growth medium containing 10% FBS and 1% Penicillin Streptomycin, and then incubated at 37° C. overnight. The following day, the test compound was administered to the cells by using 1000× compound stock solution prepared in DMSO at various concentrations. 1000× compound stock solution was first diluted in culturing medium to 10x, then 10 uL compound medium was added to each well in the cell plates. After administration of the compound, the cells were then incubated at 37° C. for 6 days. Upon completion, the plates were equilibrated at room temperature for approximately 10 minutes. 100 ul of CellTiter-Glo® Reagent (Promega) was added to each well. The plates were then incubated at room temperature for 10 minutes and luminescence was recorded by EnSpire plate reader (PerkinElmer).
# [9] = Table 35, recombinant CDK kinase
# [10] = Table 35, recombinant CDK kinase, read-out: CDK9-CYCLINT1, IC50
# [11] = Table 37, recombinant CDK kinase
# CDK9-CYCLIN T1, sequence (P50750 whole entry): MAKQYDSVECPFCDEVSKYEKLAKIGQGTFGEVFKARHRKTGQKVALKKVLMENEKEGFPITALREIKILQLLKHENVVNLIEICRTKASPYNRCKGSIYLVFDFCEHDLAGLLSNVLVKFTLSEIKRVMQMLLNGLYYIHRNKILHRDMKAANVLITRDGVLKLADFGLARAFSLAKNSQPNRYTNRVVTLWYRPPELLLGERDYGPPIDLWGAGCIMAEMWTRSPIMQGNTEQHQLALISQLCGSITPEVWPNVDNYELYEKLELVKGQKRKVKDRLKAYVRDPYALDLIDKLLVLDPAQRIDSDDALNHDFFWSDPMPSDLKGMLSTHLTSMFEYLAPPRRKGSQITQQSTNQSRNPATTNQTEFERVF
# CDK9-CYCLIN T1, sequence (O60563 whole entry partner): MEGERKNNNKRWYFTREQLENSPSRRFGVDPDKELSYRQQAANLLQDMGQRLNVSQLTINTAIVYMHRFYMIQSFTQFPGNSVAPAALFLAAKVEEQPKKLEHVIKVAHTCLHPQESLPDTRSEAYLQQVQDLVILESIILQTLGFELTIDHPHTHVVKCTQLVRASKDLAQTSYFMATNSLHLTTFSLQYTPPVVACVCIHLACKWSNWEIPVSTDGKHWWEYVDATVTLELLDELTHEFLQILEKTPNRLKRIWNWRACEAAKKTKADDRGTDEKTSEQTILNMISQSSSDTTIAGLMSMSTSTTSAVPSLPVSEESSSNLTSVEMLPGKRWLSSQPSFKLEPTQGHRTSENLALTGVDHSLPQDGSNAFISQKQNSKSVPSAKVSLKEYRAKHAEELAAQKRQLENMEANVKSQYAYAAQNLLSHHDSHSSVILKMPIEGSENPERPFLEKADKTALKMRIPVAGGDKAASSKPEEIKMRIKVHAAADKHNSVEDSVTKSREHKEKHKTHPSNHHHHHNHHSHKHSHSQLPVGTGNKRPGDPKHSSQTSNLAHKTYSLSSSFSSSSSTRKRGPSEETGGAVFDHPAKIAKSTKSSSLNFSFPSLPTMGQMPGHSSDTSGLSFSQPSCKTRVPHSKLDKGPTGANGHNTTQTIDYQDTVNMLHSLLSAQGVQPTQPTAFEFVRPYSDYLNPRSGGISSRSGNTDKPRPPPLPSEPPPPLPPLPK
# CDK1-CYCLIN B, sequence (P06493 whole entry): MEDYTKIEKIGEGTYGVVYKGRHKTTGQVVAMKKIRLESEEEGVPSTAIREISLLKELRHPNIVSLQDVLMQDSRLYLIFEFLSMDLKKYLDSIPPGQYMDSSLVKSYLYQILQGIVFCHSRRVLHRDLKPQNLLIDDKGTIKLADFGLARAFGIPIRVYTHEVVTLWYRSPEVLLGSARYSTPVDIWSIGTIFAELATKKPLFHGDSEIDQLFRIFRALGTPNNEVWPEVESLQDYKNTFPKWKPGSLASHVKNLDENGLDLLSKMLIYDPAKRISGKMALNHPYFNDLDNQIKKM
# CDK1-CYCLIN B, sequence (P14635 whole entry partner): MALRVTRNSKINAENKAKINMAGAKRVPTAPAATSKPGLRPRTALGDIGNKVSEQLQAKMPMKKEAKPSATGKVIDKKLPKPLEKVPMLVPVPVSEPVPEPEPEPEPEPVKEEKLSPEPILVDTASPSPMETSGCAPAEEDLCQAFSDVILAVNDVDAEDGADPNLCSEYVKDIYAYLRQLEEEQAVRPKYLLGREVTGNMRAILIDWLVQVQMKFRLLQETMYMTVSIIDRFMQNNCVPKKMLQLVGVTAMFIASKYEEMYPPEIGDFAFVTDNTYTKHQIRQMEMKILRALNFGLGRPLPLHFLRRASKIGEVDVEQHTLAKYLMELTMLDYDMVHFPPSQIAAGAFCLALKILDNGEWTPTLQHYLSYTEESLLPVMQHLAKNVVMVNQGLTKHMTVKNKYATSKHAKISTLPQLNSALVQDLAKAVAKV
# CDK4-CYCLIN D1, sequence (P11802 whole entry): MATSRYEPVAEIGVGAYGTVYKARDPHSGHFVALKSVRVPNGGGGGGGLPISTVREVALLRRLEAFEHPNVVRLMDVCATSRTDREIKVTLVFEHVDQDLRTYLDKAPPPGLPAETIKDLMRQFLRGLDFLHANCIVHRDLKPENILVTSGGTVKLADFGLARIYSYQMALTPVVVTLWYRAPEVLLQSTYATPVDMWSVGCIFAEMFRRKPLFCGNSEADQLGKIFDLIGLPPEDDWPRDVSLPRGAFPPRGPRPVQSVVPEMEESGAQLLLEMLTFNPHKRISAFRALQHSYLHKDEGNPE
# CDK4-CYCLIN D1, sequence (P24385 whole entry partner): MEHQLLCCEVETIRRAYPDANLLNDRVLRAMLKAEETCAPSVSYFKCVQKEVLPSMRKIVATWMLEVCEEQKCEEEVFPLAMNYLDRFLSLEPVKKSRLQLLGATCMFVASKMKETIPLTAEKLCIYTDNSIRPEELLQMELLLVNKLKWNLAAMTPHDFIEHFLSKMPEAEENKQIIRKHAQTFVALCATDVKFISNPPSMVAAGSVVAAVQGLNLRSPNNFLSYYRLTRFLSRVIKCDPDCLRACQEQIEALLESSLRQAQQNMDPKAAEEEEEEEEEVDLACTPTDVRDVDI
# CDK6-CYCLIN D3, sequence (Q00534 whole entry): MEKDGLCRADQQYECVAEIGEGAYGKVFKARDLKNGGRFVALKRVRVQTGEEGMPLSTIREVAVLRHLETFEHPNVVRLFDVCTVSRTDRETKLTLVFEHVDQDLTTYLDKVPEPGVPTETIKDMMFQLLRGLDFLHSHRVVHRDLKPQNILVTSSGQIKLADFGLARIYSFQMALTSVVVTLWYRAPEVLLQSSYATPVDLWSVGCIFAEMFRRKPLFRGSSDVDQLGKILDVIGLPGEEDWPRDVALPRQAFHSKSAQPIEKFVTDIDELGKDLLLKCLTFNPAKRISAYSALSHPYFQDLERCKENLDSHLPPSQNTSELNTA
# CDK6-CYCLIN D3, sequence (P30281 whole entry partner): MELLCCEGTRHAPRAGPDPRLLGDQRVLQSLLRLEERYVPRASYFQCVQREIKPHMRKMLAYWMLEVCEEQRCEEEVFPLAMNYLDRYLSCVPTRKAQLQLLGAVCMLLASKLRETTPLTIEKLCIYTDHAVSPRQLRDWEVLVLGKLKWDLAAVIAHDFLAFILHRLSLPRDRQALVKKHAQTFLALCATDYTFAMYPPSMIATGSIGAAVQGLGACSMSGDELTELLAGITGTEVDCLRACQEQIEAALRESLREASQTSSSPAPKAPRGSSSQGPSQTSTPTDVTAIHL
SMILES,IC50 [6],IC50 [7],IC50 [8],also measured
"C[C@@H]1NC(=O)O[C@@H]2CC[C@@H](C2)c2cc([nH]n2)Nc2cnnc(c2)OCCC1(F)F [Compound 218, (1^1S,1^3R,9S,Z)-8,8-difluoro-9-methyl-2^1H-5,12-dioxa-3,10-diaza-4(5,3)-pyridazina-2(3,5)-pyrazola-1(1,3)-cyclopentanacyclododecaphan-11-one]",10 to 50 nM,> 250 nM,> 1250 nM,
"C[C@H]1NC(=O)O[C@@H]2CC[C@@H](C2)c2cc([nH]n2)Nc2ccnc(c2)OCCC1(F)F [Compound 220, (1^1S,1^3R,9R,Z)-8,8-difluoro-9-methyl-2^1H-5,12-dioxa-3,10-diaza-4(4,2)-pyridina-2(3,5)-pyrazola-1(1,3)-cyclopentanacyclododecaphan-11-one]",2 to 10 nM,10 to 50 nM,250 to 1250 nM,
"[2H]C1([2H])Oc2cc(ccn2)Nc2[nH]nc(c2F)[C@H]2CC[C@H](C2)OC(=O)N[C@H]2C[C@H]1C2 [Compound 221, (1^1S,1^3R,7^1R,7^3S,E)-24-fluoro-2^1H-5,10-dioxa-3,8-diaza-4(4,2)-pyridina-2(3,5)-pyrazola-1(1,3)-cyclopentana-7(1,3)-cyclobutanacyclodecaphan-9-one-6,6-d2]",10 to 50 nM,10 to 50 nM,,"IC50 [1, 9]: 50 to 100 nM; CDK2 Fold selectivity against CDK1 ([1]; Table 36): E (E, <20); IC50 [2, 9]: ≤ 10 nM; IC50 [3, 9]: 100 to 500 nM; CDK2 Fold selectivity against CDK4 ([3]; Table 36): C (C, >50 and ≤100); IC50 [4, 9]: 100 to 500 nM; CDK2 Fold selectivity against CDK6 ([4]; Table 36): C (C, >50 and ≤100); IC50 [5, 10]: > 500 nM; CDK2 Fold selectivity against CDK9 ([5]; Table 36): B (B, >100 and ≤500)"
"C[C@H]1NC(=O)O[C@@H]2CC[C@@H](C2)c2n[nH]c(c2F)Nc2ccnc(c2)OCCC1(F)F [Compound 228, (1^1S,1^3R,9R,E)-2^4,8,8-trifluoro-9-methyl-2^1H-5,12-dioxa-3,10-diaza-4(4,2)-pyridina-2(3,5)-pyrazola-1(1,3)-cyclopentanacyclododecaphan-11-one]",50 to 250 nM,50 to 250 nM,> 1250 nM,
"O=C1NC2CC(COc3cc(ccn3)Nc3cc(n[nH]3)C3C[C@@H](F)[C@H](C3)O1)C2 [Compound 229, (1^1R,1^3S,1^4R,7^1S,7^3R,Z)-1^4-fluoro-2^1H-5,10-dioxa-3,8-diaza-4(4,2)-pyridina-2(3,5)-pyrazola-1(1,3)-cyclopentana-7(1,3)-cyclobutanacyclodecaphan-9-one]",2 to 10 nM,10 to 50 nM,,"IC50 [1, 11]: 10 to 50 nM; CDK2 Fold selectivity against CDK1 ([1]; Table 38): E (E, <20); IC50 [2, 11]: ≤ 10 nM; IC50 [3, 11]: 10 to 50 nM; CDK2 Fold selectivity against CDK4 ([3]; Table 38): E (E, <20); IC50 [4, 11]: 10 to 50 nM; CDK2 Fold selectivity against CDK6 ([4]; Table 38): E (E, <20); IC50 ([5]; Table 37, recombinant CDK kinase, read-out: CDK9-CYCLINT1, IC50): 100 to 500 nM; CDK2 Fold selectivity against CDK9 ([5]; Table 38): C (C, >50 and ≤100)"
C[C@@H]1CCCNC(=O)O[C@@H]2CC[C@@H](C2)c2cc(n[nH]2)Nc2ccnc(c2)O1 [compound 11],10 to 50 nM,50 to 250 nM,> 1250 nM,
O=C1NC23CC(CCc4cc(cc(C(F)F)n4)Nc4cc([nH]n4)[C@H]4CC[C@H](C4)O1)(C2)C3 [compound 20],10 to 50 nM,10 to 50 nM,> 1250 nM,
C[C@@H]1OCCCNC(=O)O[C@@H]2CC[C@@H](C2)c2cc([nH]n2)Nc2ccnc1c2 [compound 72],10 to 50 nM,> 250 nM,> 1250 nM,
C[C@H]1CCC2(CC2)NC(=O)O[C@@H]2CC[C@@H](C2)c2cc([nH]n2)Nc2ccnc(c2)O1 [compound 110],50 to 250 nM,> 250 nM,> 1250 nM,

# Further lines, with some results ahead:
IC50 [6],IC50 [7],SMILES,IC50 [8],also measured
2 to 10 nM,10 to 50 nM,"[2H]C1([2H])Oc2cc(ccn2)Nc2cc(n[nH]2)[C@H]2CC[C@H](C2)OC(=O)N[C@H]2C[C@H]1C2 [Compound 177, (1^1S,1^3R,7^1R,7^3S,Z)-2^1H-5,10-dioxa-3,8-diaza-4(4,2)-pyridina-2(3,5)-pyrazola-1(1,3)-cyclopentana-7(1,3)-cyclobutanacyclodecaphan-9-one-6,6-d2]",,"IC50 ([1]; ADP-Glo, 1000 μM ATP, Table 27): 10 to 50 nM; CDK2 Fold selectivity, CDK1 ([1]; CDK2 versus CDK1, Table 28): E (E, <20); IC50 [1, 9]: 10 to 50 nM; CDK2 Fold selectivity against CDK1 ([1]; Table 36): E (E, <20); IC50 ([2]; ADP-Glo, 1000 μM ATP, Table 27): ≤ 10 nM; IC50 [2, 9]: ≤ 10 nM; IC50 ([3]; ADP-Glo, 1000 μM ATP, Table 27): 50 to 100 nM; CDK2 Fold selectivity, CDK4 ([3]; CDK2 versus CDK4, Table 28): D (D, >20 and ≤50); IC50 [3, 9]: 10 to 50 nM; CDK2 Fold selectivity against CDK4 ([3]; Table 36): E (E, <20); IC50 ([4]; ADP-Glo, 1000 μM ATP, Table 27): 100 to 500 nM; CDK2 Fold selectivity, CDK6 ([4]; CDK2 versus CDK6, Table 28): D (D, >20 and ≤50); IC50 [4, 9]: 10 to 50 nM; CDK2 Fold selectivity against CDK6 ([4]; Table 36): E (E, <20); IC50 ([5]; ADP-Glo, 1000 μM ATP, Table 27, read-out: CDK9-CYCLINT1 IC50): 100 to 500 nM; CDK2 Fold selectivity, CDK9 ([5]; CDK2 versus CDK9, Table 28): D (D, >20 and ≤50); IC50 [5, 10]: 50 to 100 nM; CDK2 Fold selectivity against CDK9 ([5]; Table 36): D (D, >20 and ≤50)"
2 to 10 nM,10 to 50 nM,"C[C@@H]1NC(=O)O[C@@H]2CC[C@@H](C2)c2cc([nH]n2)Nc2cncc(c2)OCCC1(F)F [Compound 190, (1^1S,1^3R,9S,Z)-8,8-difluoro-9-methyl-2^1H-5,12-dioxa-3,10-diaza-4(3,5)-pyridina-2(3,5)-pyrazola-1(1,3)-cyclopentanacyclododecaphan-11-one]",250 to 1250 nM,
≤ 2 nM,≤ 2 nM,"C[C@@H]1NC(=O)O[C@@H]2CC[C@@H](C2)c2cc([nH]n2)Nc2cncc(n2)OCCC1(F)F [Compound 219, (1^1S,1^3R,9S,Z)-8,8-difluoro-9-methyl-2^1H-5,12-dioxa-3,10-diaza-4(2,6)-pyrazina-2(3,5)-pyrazola-1(1,3)-cyclopentanacyclododecaphan-11-one]",10 to 50 nM,
≤ 2 nM,2 to 10 nM,O=C1NC23CC(CCOc4cc(cc(C(F)F)n4)Nc4cc([nH]n4)[C@H]4CC[C@H](C4)O1)(C2)C3 [compound 23],50 to 250 nM,
